Data as given in patent US8183296B2, “Pesticide phenyloxy substituted phenylamidine derivatives” (Bayer Cropscience AG, priority 2005, dated 2012).

Columns and labels:
[1] = logP by HPLC on reversed-phase column (C 18), EEC Directive 79/831 Annex V.A8; type: physicochemical; conditions: C 18, 40° C., 0.1% aqueous formic acid and acetonitrile; for chromatographic logP: reversed-phase HPLC column (C 18), read-out: logPa
Method: Temperature: 40° C.; Mobile phases: 0.1% aqueous formic acid and acetonitrile; linear gradient from 10% acetonitrile to 90% acetonitrile.
Calibration was carried out using unbranched alkan-2-ones (comprising 3 to 16 carbon atoms) with known logP values (determination of the logP values by the retention times using linear interpolation between two successive alkanones).

[2] = tested on: Puccinia recondita f. Sp. tritici; assay: In vivo preventive test on Puccinia recondita f. Sp. tritici (wheat brown rust); conditions: topical, 240 h, 1000 ppm of active ingredient, evaluated 10 days after inoculation, read-out: efficacy
Method: In Vivo Preventive Test on Puccinia recondita f. Sp. tritici (Wheat Brown Rust)
(§1) To produce a suitable preparation of active compound, 1 part by weight of active compound is mixed with the stated amounts of solvent and emulsifier, and the concentrate is diluted with water to the desired concentration.
To test for preventive activity, young plants are […]. After the spray coating has dried on, the plants are sprayed with the preparation of active compound at the stated rate of application. The plants remain for 24 hours in an incubation cabinet at 20° C. and a relative atmospheric humidity of 100%.
The plants are placed in a greenhouse at a temperature of approximately 20° C. and a relative atmospheric humidity of approximately 80% to promote the development of rust pustules.
The test is evaluated 10 days after the inoculation. 0% means an efficacy which corresponds to that of the control, while an efficacy of 100% means that no disease is observed.

[3] = tested on: Erysiphe graminis f.sp. hordei; assay: In vivo preventive test on Erysiphe graminis (powdery mildew on barley); conditions: Blumeria graminis, topical, 168 h, 1000 ppm of active ingredient, evaluated 7 days after inoculation, read-out: efficacy
Method: In Vivo Preventive Test on Erysiphe gramini (Powdery Mildew on Barley)
To produce a suitable preparation of active compound, 1 part by weight of active compound or active compound combination is mixed with the stated amounts of solvent and emulsifier, and the concentrate is diluted with water to the desired concentration.
To test for preventive activity, young plants are sprayed with the preparation of active compound or active compound combination at the stated rate of application.
After the spray coating has dried on, the plants are dusted with spores of Erysiphe graminis f.sp. hordei
The plants are placed in a greenhouse at a temperature of approximately 20° C. and a relative atmospheric humidity of approximately 80% to promote the development of mildew pustules.
(§2) The test is evaluated 7 days after the inoculation. 0% means an efficacy which corresponds to that of the control, while an efficacy of 100% means that no disease is observed.

[4] = tested on: Alternaria solani; assay: In vivo protective test on Alternaria solani (leaf spot of tomato); conditions: topical, 168 h, 500 ppm of active ingredient, evaluated 7 days after inoculation, read-out: efficacy
Method: In Vivo Protective Test on Alternaria solani (Leaf Spot of Tomato)
as §1
To test for protective activity, young plants are sprayed with the preparation of active compound at the stated rate of application. After the spray coating has dried on, the plants are inoculated with an aqueous spore suspension of Alternatia solani. The plants remain for one day in an incubation cabinet at approximately 20° C. and a relative atmospheric humidity of 100%. Then the plants are placed in an incubation cabinet at approximately 20° C. and a relative atmospheric humidity of 96%.
The test is evaluated 7 days after the inoculation. 0% means an efficacy which corresponds to that of the control while an efficacy of 100% means that no disease is observed.

[5] = tested on: Podosphaera leucotricha; assay: In vivo protective test on Podosphaera leucotricha (apples); conditions: topical, 240 h, 100 ppm of active ingredient, evaluated 10 days after inoculation, read-out: efficacy
Text: In Vivo Protective Test on Podosphaera leucotricha (Apples) [table] […] To test for protective activity, young plants are sprayed with the preparation of active compound at the stated rate of application. After the spray coating has dried on, the plants are inoculated with an aqueous spore suspension of the causal agent of apple mildew (Podosphaera leucotricha).

[6] = tested on: Sphaerotheca fuliginea; assay: In vivo protective test on Sphaerotheca fuliginea (cucumbers); conditions: Podosphaera fuliginea, topical, 168 h, 100 ppm of active ingredient, evaluated 7 days after inoculation, read-out: efficacy
Method: In Vivo Protective Test on Sahaerotheca fuliginea (Cucumbers)
as §1
To test for protect activity, young plants are sprayed with the preparation of active compound at the stated rate of application. After the spray coating has dried on, the plants are inoculated with an aqueous spore suspension of Sphaerotheca fuliginea. The plants are then placed in a greenhouse at approximately 23° C. and a relative atmospheric humidity of approximately 70%.
as §2

Row | logPa [1] | chromatographic logP [1] | SMILES | pest or weed control at 1000 ppm [2] [%] | further results
1 | 2.80 |  | Cc1cc(Oc2cc(Cl)c(/N=C/N3CCCCC3C)cc2C)ccc1Cl (racemic) [Example 52] |  | 
2 | 3.33 |  | Cc1cc(/N=C/N2CCCCC2C)c(Cl)cc1Oc1ccc(Cl)c(C(C)(C)C)c1 (racemic) [Example 54] |  | 
3 | 3.07 |  | Cc1cc(/N=C/N2CCCCC2C)c(Cl)cc1Oc1ccc(Cl)c(C(C)C)c1 (racemic) [Example 62] |  | 
4 |  | 2.31 | CCN(C)/C=N/c1cc(C)c(Oc2ccc(Cl)c(C)c2)cc1C [Example 4] |  | 
5 |  | 2.56 | CCc1cc(Oc2cc(C)c(/N=C/N(C)CC)cc2C)ccc1Cl [Example 5] | ≥ 70 | pest or weed control at 1000 ppm [3]: ≥ 70%; pest or weed control at 500 ppm [4]: ≥ 70%; pest or weed control at 100 ppm [5]: ≥ 70%; pest or weed control at 100 ppm [6]: ≥ 70%
6 | 2.21 |  | Cc1cc(Oc2ccc(Cl)c(C(C)(C)C)c2)c(C)cc1/N=C/N(C)C1CC1 [Example 7] |  | 
7 |  | 3.3 | CCCN(C)/C=N/c1cc(C)c(Oc2ccc(Cl)c(C(C)(C)C)c2)cc1C [Example 8] | ≥ 70 | pest or weed control at 1000 ppm [3]: ≥ 70%; pest or weed control at 500 ppm [4]: ≥ 70%; pest or weed control at 100 ppm [5]: ≥ 70%; pest or weed control at 100 ppm [6]: ≥ 70%
8 |  | 5.12 | CCN(C)/C(S)=N/c1cc(C)c(Oc2ccc(Cl)c(C(C)(C)C)c2)cc1C [Example 10] |  | pest or weed control at 1000 ppm [3]: ≥ 70%; pest or weed control at 500 ppm [4]: ≥ 70%; pest or weed control at 100 ppm [5]: ≥ 70%; pest or weed control at 100 ppm [6]: ≥ 70%
9 |  | 2.84 | CCCN(C)/C=N/c1cc(Cl)c(Oc2ccc(Cl)c(CC)c2)cc1C [Example 11] | ≥ 70 | pest or weed control at 1000 ppm [3]: ≥ 70%; pest or weed control at 100 ppm [5]: ≥ 70%; pest or weed control at 100 ppm [6]: ≥ 70%
10 | 2.89 |  | CCc1cc(Oc2cc(C)c(/N=C/N(C)C3CC3)cc2Cl)ccc1Cl [Example 12] |  | 
11 | 2.71 |  | CCc1cc(Oc2cc(C)c(/N=C/N(C)C3CC3)cc2C)ccc1Cl [Example 15] |  | 
12 |  | 2.4 | Cc1cc(Oc2cc(C)c(/N=C/N(C)C(C)C)cc2C)ccc1Cl [Example 16] | ≥ 70 | pest or weed control at 1000 ppm [3]: ≥ 70%; pest or weed control at 500 ppm [4]: ≥ 70%; pest or weed control at 100 ppm [5]: ≥ 70%
13 | 2.96 |  | Cc1cc(Oc2ccc(Cl)c(C(C)C)c2)c(Cl)cc1/N=C/N(C)C1CC1 [Example 23] |  | 
14 | 3.24 |  | Cc1cc(Oc2ccc(Cl)c(C(C)(C)C)c2)c(Cl)cc1/N=C/N(C)C1CC1 [Example 24] |  | 
15 |  | 3 | CCCN(C)/C=N/c1cc(C)c(Oc2ccc(Cl)c(C(C)C)c2)cc1C [Example 27] | ≥ 70 | pest or weed control at 1000 ppm [3]: ≥ 70%; pest or weed control at 100 ppm [5]: ≥ 70%; pest or weed control at 100 ppm [6]: ≥ 70%
16 |  | 4.81 | CCN(C)/C(S)=N/c1cc(C)c(Oc2ccc(Cl)c(C(C)C)c2)cc1C [Example 29] | ≥ 70 | pest or weed control at 100 ppm [5]: ≥ 70%; pest or weed control at 100 ppm [6]: ≥ 70%
17 | 3.98 |  | Cc1cc(Oc2ccc(Br)c(C(C)C)c2)c(Cl)cc1/N=C/N(C)C1CC1 [Example 31] |  | 
18 |  | 3.21 | Cc1cc(Oc2ccc(Br)c(C(C)C)c2)c(Cl)cc1/N=C/N(C)C(C)C [Example 33] |  | 
19 |  | 2.91 | CCCN(C)/C=N/c1cc(Cl)c(Oc2ccc(Br)c(C(C)C)c2)cc1C [Example 34] | ≥ 70 | pest or weed control at 1000 ppm [3]: ≥ 70%; pest or weed control at 100 ppm [5]: ≥ 70%; pest or weed control at 100 ppm [6]: ≥ 70%
20 | 5.44 |  | CCN(C)/C(S)=N/c1cc(C)c(Oc2ccc(Cl)c(C(C)(C)C)c2)cc1C [Example 35] | ≥ 70 | 
21 | 3.11 |  | Cc1cc(Oc2ccc(Cl)c(C(C)(C)C)c2)c(Cl)cc1/N=C/N1CCCCC1 [Example 36] |  | 
22 | 2.74 |  | CCc1cc(Oc2cc(C)c(/N=C/N3CCCCC3)cc2Cl)ccc1Cl [Example 37] |  | 
23 |  | 2.45 | CCN(C)/C=N/c1cc(C#N)c(Oc2ccc(Cl)c(C(C)C)c2)cc1C [Example 38] | ≥ 70 | pest or weed control at 1000 ppm [3]: ≥ 70%

Row | logPa [1] | chromatographic logP [1] | SMILES | pest or weed control at 1000 ppm [2] [%] | further results
24 |  | 3.01 | Cc1cc(/N=C/N(C)C(C)C)c(Cl)cc1Oc1ccc(Cl)c(C(C)(C)C)c1 [Example 39] | ≥ 70 | pest or weed control at 1000 ppm [3]: ≥ 70%; pest or weed control at 100 ppm [6]: ≥ 70%
25 |  | 3.2 | CCC(C)N(C)/C=N/c1cc(C)c(Oc2ccc(Cl)c(C(C)(C)C)c2)cc1C (stereo not drawn) [Example 40] | ≥ 70 | pest or weed control at 100 ppm [6]: ≥ 70%
26 |  | 2.98 | CCC(C)N(C)/C=N/c1cc(C)c(Oc2ccc(Cl)c(C(C)C)c2)cc1C (stereo not drawn) [Example 41] | ≥ 70 | pest or weed control at 100 ppm [6]: ≥ 70%
27 |  | 2.9 | CCC(C)N(C)/C=N/c1cc(Cl)c(Oc2ccc(Cl)c(C(C)C)c2)cc1C (stereo not drawn) [Example 42] | ≥ 70 | 
28 |  | 3.19 | CCC(C)N(C)/C=N/c1cc(Cl)c(Oc2ccc(Cl)c(C(C)(C)C)c2)cc1C (stereo not drawn) [Example 43] |  | 
29 |  | 2.29 | Cc1cc(Oc2cc(C)c(/N=C/N(C)C(C)C)cc2C)ccc1F [Example 44] | ≥ 70 | pest or weed control at 100 ppm [6]: ≥ 70%
30 | 3.02 |  | Cc1cc(Oc2ccc(Cl)c(C(C)(C)C)c2)c(C)cc1/N=C/N1CCCCC1 [Example 45] |  | 
31 | 3.11 |  | CCN(C)/C=N/c1cc(C)c(Oc2ccc(Cl)c(CC(C)(C)C)c2)cc1C [Example 46] |  | 
32 | 3.01 |  | CCN(C)/C=N/c1cc(C)c(Oc2ccc(Cl)c(C[Si](C)(C)C)c2)cc1C [Example 47] |  | 
33 | 3.18 |  | CCN(C)/C=N/c1cc(C)c(Oc2ccc(Cl)c(C3CCCCC3)c2)cc1C [Example 48] |  | 
34 |  | 2.39 | CCN(C)/C=N/c1cc(C)c(Oc2ccc(Cl)c(C)c2)cc1Cl [Example 49] |  | 
35 |  | 2.48 | Cc1cc(Oc2cc(Cl)c(/N=C/N(C)C(C)C)cc2C)ccc1Cl [Example 50] |  | 
36 | 2.58 |  | Cc1cc(Oc2cc(Cl)c(/N=C/N3CCCCC3)cc2C)ccc1Cl [Example 51] |  | 
37 | 3.25 |  | Cc1cc(/N=C/N2CCCCC2)c(Cl)cc1Oc1ccc(Cl)c(C(C)(C)C)c1 [Example 53] |  | 
38 |  | 2.95 | CCCCc1cc(Oc2cc(C)c(/N=C/N(C)CC)cc2C)ccc1Cl [Example 55] | ≥ 70 | 
39 |  | 2.92 | CCN(C)/C=N/c1cc(C)c(Oc2ccc(Cl)c(CC(C)C)c2)cc1C [Example 56] | ≥ 70 | 
40 | 2.26 |  | CCN(C)/C=N/c1cc(C)c(Oc2ccc(Cl)c(C(C)(C)OC)c2)cc1C [Example 57] |  | 
41 |  | 2.78 | CCN(C)/C=N/c1cc(C)c(Oc2ccc(Cl)c(C(C)C)c2)cc1Cl [Example 60] |  | 
42 | 3.25 |  | Cc1cc(Oc2ccc(Cl)c(C(C)(C)C)c2)c(C)cc1/N=C/N1CCC(F)(F)CC1 [Example 61] |  | 
43 |  | 2.67 | CCN(C)/C=N/c1cc(Br)c(Oc2ccc(Cl)c(C(C)(C)C)c2)cc1C [Example 63] |  | 
44 | 3.28 |  | CCN(C)/C=N/c1cc(C)c(Oc2ccc(Cl)c(C3CCCC3)c2)cc1C [Example 64] |  | 
45 | 3.19 |  | Cc1cc(Oc2ccc(Cl)c(CC(C)(C)C)c2)c(C)cc1/N=C/N1CCCCC1 [Example 65] |  | 
